# From patent publication US20250195490A1, “ALPHA-METHYLENE AND AMINOMETHYL LACTONES AND LACTAMS FOR TREATMENT OF CLOSTRIDIOIDES DIFFICILE INFECTION (CDI)” (Purdue Research Foundation, priority 2022, published 2025)
# Read-outs that look alike come from different tables or passages of the source.
# Key:
# MRSA (USA300) = assay: microbe, parasite or virus in culture; format: cell-based, Staphylococcus aureus; settings: for MIC MRSA (USA300): aerobic, 37° C., at least 18 hours
# Method: (§1) Method: The minimum inhibitory concentration (MIC) of the compounds and control drugs, linezolid (antibiotic), vancomycin (antibiotic), 5-fluorocytosine (5-FC, antifungal drug), and fluconazole (antifungal drug) was determined using the broth microdilution method according to the guidelines outlined by the Clinical and Laboratory Standards Institute (CLSI) against clinically relevant bacterial (methicillin-resistant Staphylococcus aureus (MRSA), vancomycin-resistant Enterococcus faecalis (VRE), vancomycin-resistant Enterococcus faecium (VRE), Clostridioides difficile and Escherichia coli) and fungal (Candida albicans) strains. A solution equivalent to 0.5 McFarland standard was prepared from each strain and diluted in cation-adjusted Mueller-Hinton broth (for S. aureus and E. coli), tryptone soy broth (for E. faecalis), or brain heart infusion broth (for E. faecium) to achieve a bacterial inoculum of about 5×10^5 CFU/mL. C. difficile strains were cultured in brain heart infusion broth supplemented with hemin and vitamin K. C. albicans was diluted in RPMI medium supplemented with 3-(N-morpholino) propanesulfonic acid to achieve a fungal concentration of about 1.5×10^3 CFU/mL. Compounds and control drugs were added in the first row of the 96-well plates and diluted with media containing bacteria (to achieve a concentration gradient ranging from 128 to 1 μg/mL). For MRSA, VRE, and E. coli strains, plates were then incubated aerobically at 37° C. for at least 18 hours. C. albicans was incubated aerobically at 37° C. for 24 hours. Plates containing C. difficile were incubated anaerobically at […] for 48 hours.
# Ba. dorsei = assay: MIC against human normal gut microbiota: Bacteroides dorsei; format: cell-based
# Procedure, shortened: (§2)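 Growth inhibition was scored by eye after 48 h incubation of roughly 5×10^5 CFU/mL of each gut commensal with serial compound dilutions. Anaerobes were grown in BHIS medium, while lactobacilli were grown in MRS medium.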
# Ba. fragilis = assay: MIC against human normal gut microbiota: Bacteroides fragilis; format: cell-based
# Procedure, shortened: as §2
# [1] = test system: clinically important Clostridioides difficile strains; assay: MIC against clinically important Clostridioides difficile strains; format: cell-based
# Procedure, shortened: (§3)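 Broth microdilution in brain heart infusion broth with hemin and vitamin K, inoculum from 0.5 McFarland suspension. Compounds serially diluted from 128 to 1 μg/mL. Plates incubated anaerobically for 48 hours.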
# L. gasseri = assay: MIC against human normal gut microbiota: L. gasseri; format: cell-based, Lactobacillus gasseri
# Procedure, shortened: as §2
# L. reuteri = assay: MIC against human normal gut microbiota: L. reuteri; format: cell-based, Lactobacillus reuteri
# Procedure, shortened: as §2
# E. faecalis (VRE) = assay: microbe, parasite or virus in culture; format: cell-based, Enterococcus faecalis; settings: aerobic, 37° C., at least 18 hours
# Method: as §1
# C. albicans = assay: Broth microdilution against Candida albicans; format: cell-based; settings: gradient 128 to 1 μg/mL, 24 hours
# Method: as §1
# L. crispatus = assay: MIC against human normal gut microbiota: L. crispatus; format: cell-based, Lactobacillus crispatus
# Procedure, shortened: as §2
# [2] = test system: hypervirulent Clostridioides difficile strains; assay: MIC against hypervirulent Clostridioides difficile strains; format: cell-based
# Procedure, shortened: as §3
# Bi. breve = assay: MIC against human normal gut microbiota: Bifidobacterium breve; format: cell-based
# Procedure, shortened: as §2
# L. casei = assay: MIC against human normal gut microbiota: L. casei; format: cell-based, Lactobacillus casei
# Procedure, shortened: as §2
# Clostridioides difficile = assay: MIC by broth microdilution against Clostridioides difficile (Table 1); format: cell-based; settings: for MIC Clostridioides difficile: anaerobic, 48 hours, strain BAA-1870
# Bi. longum = assay: MIC against human normal gut microbiota: Bifidobacterium longum; format: cell-based
# Procedure, shortened: as §2
# E. faecium = assay: Broth microdilution against vancomycin-resistant E. faecium; format: cell-based, Enterococcus faecium; settings: gradient 128 to 1 μg/mL
# Method: as §1
structure (smiles),measurement,setting,value
COc1cc(C2OC(=O)C(CN3CCCCC3)C2c2ccccc2Br)ccc1OCc1ccccc1 (racemic) [Compound 27],MIC MRSA (USA300),MRSA (USA300),>128 µg/mL
same,MIC,Ba. dorsei; Ba. dorsei HM 29,>128 µg/mL
same,MIC,Ba. dorsei; Ba. dorsei HM 717,>128 µg/mL
same,MIC,Ba. fragilis; Ba. fragilis HM 709,>128 µg/mL
same,MIC,Ba. fragilis; Ba. fragilis HM 710,>128 µg/mL
same,MIC,Ba. fragilis; Ba. fragilis HM 711,>128 µg/mL
same,MIC,Ba. fragilis; Ba. fragilis HM 714,>128 µg/mL
same,MIC,[1]; CD strain 16,1 µg/mL
same,MIC,[1]; CD strain 18,2 µg/mL
same,MIC,[1]; CD strain 19,1 µg/mL
same,MIC,[1]; CD strain 1801,1 µg/mL
same,MIC,[1]; CD strain 43255,1 µg/mL
same,MIC,[1]; CD strain P6,2 µg/mL
same,MIC,[1]; CD strain P7,1 µg/mL
same,MIC,[1]; CD strain P13,1 µg/mL
same,MIC,[1]; CD strain P19,2 µg/mL
same,MIC,L. gasseri; L. gasseri HM 407,>128 µg/mL
same,MIC,L. reuteri; L. reuteri HM 120,>128 µg/mL
same,MIC E. faecalis (VRE),E. faecalis (VRE),>128 µg/mL
same,activity against C. albicans,C. albicans,inactive
same,MIC,L. crispatus; L. crispatus HM 375,>128 µg/mL
same,MIC,L. crispatus; L. crispatus HM 421,>128 µg/mL
same,MIC,[2]; CD strain 81,2 µg/mL
same,MIC,[2]; CD strain 82,2 µg/mL
same,MIC,[2]; CD strain 83,2 µg/mL
same,MIC,[2]; CD strain 84,4 µg/mL
same,MIC,[2]; CD strain 85,2 µg/mL
same,MIC,[2]; CD strain 86,2 µg/mL
same,MIC,[2]; CD strain 87,2 µg/mL
same,MIC,[2]; CD strain 90,1 µg/mL
same,MIC,[2]; CD strain 49279,2 µg/mL
same,MIC,[2]; CD strain 49287,1 µg/mL
same,MIC,[2]; CD strain 49291,1 µg/mL
same,MIC,Bi. breve; Bi. breve HM 856,>128 µg/mL
same,MIC,L. casei; L. casei HM 334,>128 µg/mL
same,MIC Clostridioides difficile,Clostridioides difficile,1 µg/mL
same,MIC,Bi. longum; Bi. longum HM 848,>128 µg/mL
same,inhibition of the tested strains of E. faecium,E. faecium,did not inhibit
C=C1C(=O)O[C@H](c2ccccc2O)[C@@H]1c1cccc(C#N)c1 (racemic) [Compound 50],MIC MRSA (USA300),MRSA (USA300),>128 µg/mL
same,MIC,Ba. dorsei; Ba. dorsei HM 29,>128 µg/mL
same,MIC,Ba. dorsei; Ba. dorsei HM 717,>128 µg/mL
same,MIC,Ba. fragilis; Ba. fragilis HM 709,>128 µg/mL
same,MIC,Ba. fragilis; Ba. fragilis HM 710,>128 µg/mL
same,MIC,Ba. fragilis; Ba. fragilis HM 711,>128 µg/mL
same,MIC,Ba. fragilis; Ba. fragilis HM 714,>128 µg/mL
same,MIC,[1]; CD strain 16,128 µg/mL
same,MIC,[1]; CD strain 18,32 µg/mL
same,MIC,[1]; CD strain 19,128 µg/mL
same,MIC,[1]; CD strain 1801,128 µg/mL
same,MIC,[1]; CD strain 43255,16 µg/mL
same,MIC,[1]; CD strain P6,128 µg/mL
same,MIC,[1]; CD strain P7,128 µg/mL
same,MIC,[1]; CD strain P13,32 µg/mL
same,MIC,[1]; CD strain P19,32 µg/mL
same,MIC,L. gasseri; L. gasseri HM 407,>128 µg/mL
same,MIC,L. reuteri; L. reuteri HM 120,>128 µg/mL
same,MIC E. faecalis (VRE),E. faecalis (VRE),>128 µg/mL
same,activity against C. albicans,C. albicans,inactive
same,MIC,L. crispatus; L. crispatus HM 375,>128 µg/mL
same,MIC,L. crispatus; L. crispatus HM 421,>128 µg/mL
same,MIC,[2]; CD strain 81,>128 µg/mL
same,MIC,[2]; CD strain 82,64 µg/mL
same,MIC,[2]; CD strain 83,128 µg/mL
same,MIC,[2]; CD strain 84,>128 µg/mL
same,MIC,[2]; CD strain 85,>128 µg/mL
same,MIC,[2]; CD strain 86,128 µg/mL
same,MIC,[2]; CD strain 87,128 µg/mL
same,MIC,[2]; CD strain 90,128 µg/mL
same,MIC,[2]; CD strain 49279,>128 µg/mL
same,MIC,[2]; CD strain 49287,128 µg/mL
same,MIC,[2]; CD strain 49291,64 µg/mL
same,MIC,Bi. breve; Bi. breve HM 856,>128 µg/mL
same,MIC,L. casei; L. casei HM 334,>128 µg/mL
same,MIC Clostridioides difficile,Clostridioides difficile,8 µg/mL
same,MIC,Bi. longum; Bi. longum HM 848,>128 µg/mL
same,inhibition of the tested strains of E. faecium,E. faecium,did not inhibit
"CN[C@H](CC(C)C)C(=O)N[C@H]1C(=O)N[C@@H](CC(N)=O)C(=O)N[C@H]2C(=O)N[C@H]3C(=O)N[C@H](C(=O)N[C@H](C(=O)O)c4cc(O)cc(O)c4-c4cc3ccc4O)[C@H](O)c3ccc(c(Cl)c3)Oc3cc2cc(c3O[C@@H]2O[C@H](CO)[C@@H](O)[C@H](O)[C@H]2O[C@H]2C[C@](C)(N)[C@H](O)[C@H](C)O2)Oc2ccc(cc2Cl)[C@H]1O [Vancomycin, reference compound]",MIC,"MRSA (USA300); Staphylococcus aureus, 18 h, read-out: MIC MRSA (USA300)",1 µg/mL
same,MIC,"Ba. dorsei; Bacteroides, Ba. dorsei HM 717",8 µg/mL
same,MIC,"Ba. dorsei; Bacteroides, Ba. dorsei HM 29",128 µg/mL
same,MIC,"Ba. fragilis; Bacteroides fragilis, Ba. fragilis HM 710",16 µg/mL
same,MIC,"Ba. fragilis; Bacteroides fragilis, Ba. fragilis HM 711",16 µg/mL
same,MIC,"Ba. fragilis; Bacteroides fragilis, Ba. fragilis HM 714",16 µg/mL
same,MIC,"Ba. fragilis; Bacteroides fragilis, Ba. fragilis HM 709",64 µg/mL
same,MIC,"[1]; Clostridioides difficile, CD strain 16, read-out: MIC",1 µg/mL
same,MIC,"[1]; Clostridioides difficile, CD strain 18, read-out: MIC",0.5 µg/mL
same,MIC,"[1]; Clostridioides difficile, CD strain 19, read-out: MIC",1 µg/mL
same,MIC,"[1]; Clostridioides difficile, CD strain 1801, read-out: MIC",1 µg/mL
same,MIC,"[1]; Clostridioides difficile, CD strain 43255, read-out: MIC",1 µg/mL
same,MIC,"[1]; Clostridioides difficile, CD strain P6, read-out: MIC",1 µg/mL
same,MIC,"[1]; Clostridioides difficile, CD strain P7, read-out: MIC",1 µg/mL
same,MIC,"[1]; Clostridioides difficile, CD strain P13, read-out: MIC",1 µg/mL
same,MIC,"[1]; Clostridioides difficile, CD strain P19, read-out: MIC",1 µg/mL
same,MIC,L. gasseri; Lactobacillus gasseri,> 128 µg/mL
same,MIC,L. reuteri; Limosilactobacillus reuteri,> 128 µg/mL
same,MIC,L. crispatus; L. crispatus HM 375,≤1 µg/mL
same,MIC,L. crispatus; Lactobacillus crispatus,≤ 1 µg/mL
same,MIC,"[2]; Clostridioides difficile, CD strain 81",0.25 µg/mL
same,MIC,"[2]; Clostridioides difficile, CD strain 82",0.5 µg/mL
same,MIC,"[2]; Clostridioides difficile, CD strain 83",0.5 µg/mL
same,MIC,"[2]; Clostridioides difficile, CD strain 84",0.25 µg/mL
same,MIC,"[2]; Clostridioides difficile, CD strain 85",2 µg/mL
same,MIC,"[2]; Clostridioides difficile, CD strain 86",0.5 µg/mL
same,MIC,"[2]; Clostridioides difficile, CD strain 87",0.5 µg/mL
same,MIC,"[2]; Clostridioides difficile, CD strain 90",1 µg/mL
same,MIC,"[2]; Clostridioides difficile, CD strain 49279",1 µg/mL
same,MIC,"[2]; Clostridioides difficile, CD strain 49287",0.25 µg/mL
same,MIC,"[2]; Clostridioides difficile, CD strain 49291",0.25 µg/mL
same,MIC,Bi. breve; Bifidobacterium breve,≤ 1 µg/mL
same,MIC,L. casei; Lacticaseibacillus casei,> 128 µg/mL
same,MIC,"Clostridioides difficile; Clostridioides difficile, BAA1870, 48 h, read-out: MIC Clostridioides difficile",1 µg/mL
same,MIC,Bi. longum; Bifidobacterium longum,64 µg/mL
